Measurements taken from article PMC10436550, “Subacute toxicity evaluations of LPM3480392 in rats, a full µ-opioid receptor biased agonist” (Frontiers in Pharmacology, 2023).

Experiment: Body weight, 4-week subacute toxicity study
Format: in vivo, Sprague Dawley (SD) rats
Description: Body weight was recorded twice a week during the dosing phase and then once a week during the recovery phase. Terminal body weight was recorded before each necropsy for calculating the organ weight ratios.

[1] = male rats, 0.6 mg/kg/day, Day 6
[2] = male rats, 0.6 mg/kg/day, Day 9
[3] = male rats, 0.6 mg/kg/day, Day 13
[4] = male rats, 0.6 mg/kg/day, Day 16
[5] = male rats, 0.6 mg/kg/day, Day 20
[6] = male rats, 0.6 mg/kg/day, Day 23
[7] = male rats, 0.6 mg/kg/day, Day 27
[8] = male rats, 0.6 mg/kg/day, Prior to 1st dosing
[9] = male rats, 0.6 mg/kg/day, Recovery day 5
[10] = male rats, 0.6 mg/kg/day, Recovery day 12
[11] = male rats, 0.6 mg/kg/day, Recovery day 19
[12] = male rats, 0.6 mg/kg/day, Recovery day 26
[13] = male rats, 1.2 mg/kg/day, Day 6
[14] = male rats, 1.2 mg/kg/day, Day 9
[15] = male rats, 1.2 mg/kg/day, Day 13
[16] = male rats, 1.2 mg/kg/day, Day 16
[17] = male rats, 1.2 mg/kg/day, Day 20
[18] = male rats, 1.2 mg/kg/day, Day 23
[19] = male rats, 1.2 mg/kg/day, Day 27
[20] = male rats, 1.2 mg/kg/day, Prior to 1st dosing
[21] = male rats, 1.2 mg/kg/day, Recovery day 5
[22] = male rats, 1.2 mg/kg/day, Recovery day 12
[23] = male rats, 1.2 mg/kg/day, Recovery day 19
[24] = male rats, 1.2 mg/kg/day, Recovery day 26
[25] = male rats, 2.4 mg/kg/day, Day 6
[26] = male rats, 2.4 mg/kg/day, Day 9
[27] = male rats, 2.4 mg/kg/day, Day 13
[28] = male rats, 2.4 mg/kg/day, Day 16
[29] = male rats, 2.4 mg/kg/day, Day 20
[30] = male rats, 2.4 mg/kg/day, Day 23
[31] = male rats, 2.4 mg/kg/day, Day 27
[32] = male rats, 2.4 mg/kg/day, Prior to 1st dosing
[33] = male rats, 2.4 mg/kg/day, Recovery day 5
[34] = male rats, 2.4 mg/kg/day, Recovery day 12
[35] = male rats, 2.4 mg/kg/day, Recovery day 19
[36] = male rats, 2.4 mg/kg/day, Recovery day 26

## Fc1ccc([C@]2(CCNCc3cccc(Cl)c3)CCO[C@]3(CCOC3)C2)nc1 [LPM3480392]
Female rats, 2.4 mg/kg/day, Recovery day 26
  Body weight change rate: 1.40%
[1]
  Body weight: 247.1 ± 9.6 g
  Body weight change rate: 1.31%
[2]
  Body weight: 268.8 ± 11.6 g
  Body weight change rate: 2.32%
[3]
  Body weight: 292.6 ± 13.5 g
  Body weight change rate: 0.62%
[4]
  Body weight: 300.8 ± 12.5 g
  Body weight change rate: −2.12%
[5]
  Body weight: 321.4 ± 15.8 g
  Body weight change rate: −0.22%
[6]
  Body weight: 332.6 ± 17.3 g
  Body weight change rate: −0.33%
[7]
  Body weight: 349.9 ± 20.1 g
  Body weight change rate: −0.20%
[8]
  Body weight: 213.2 ± 11.1 g
  Body weight change rate: 0.66%
[9]
  Body weight: 367.7 ± 23.5 g
  Body weight change rate: −4.86%
[10]
  Body weight: 395.5 ± 24.5 g
  Body weight change rate: −4.63%
[11]
  Body weight: 415.6 ± 25.4 g
  Body weight change rate: −5.29%
[12]
  Body weight: 442.1 ± 24.4 g
  Body weight change rate: −4.22%
[13]
  Body weight: 243.6 ± 12.3 g
  Body weight change rate: −0.12%
[14]
  Body weight: 247.3 ± 10.6 g
  Body weight change rate: −5.86%
[15]
  Body weight: 281.5 ± 15.7 g
  Body weight change rate: −3.20%
[16]
  Body weight: 297.1 ± 19.6 g
  Body weight change rate: −3.32%
[17]
  Body weight: 313.4 ± 22.6 g
  Body weight change rate: −2.70%
[18]
  Body weight: 325.9 ± 21.5 g
  Body weight change rate: −2.34%
[19]
  Body weight: 339.3 ± 23.2 g
  Body weight change rate: −3.22%
[20]
  Body weight: 213.2 ± 9.4 g
  Body weight change rate: 0.66%
[21]
  Body weight: 361.2 ± 14.2 g
  Body weight change rate: −6.55%
[22]
  Body weight: 388.0 ± 14.5 g
  Body weight change rate: −6.44%
[23]
  Body weight: 416.4 ± 19.3 g
  Body weight change rate: −5.10%
[24]
  Body weight: 444.3 ± 23.9 g
  Body weight change rate: −3.75%
[25]
  Body weight: 234.0 ± 21.8 g
  Body weight change rate: −4.06%
[26]
  Body weight: 249.9 ± 31.9 g
  Body weight change rate: −4.87%
[27]
  Body weight: 272.4 ± 27.9 g
  Body weight change rate: −6.33%
[28]
  Body weight: 281.1 ± 31.2 g
  Body weight change rate: −8.53%
[29]
  Body weight: 297.6 ± 36.8 g
  Body weight change rate: −7.61%
[30]
  Body weight: 299.3 ± 36.1 g
  Body weight change rate: −10.31%
[31]
  Body weight: 315.4 ± 36.4 g
  Body weight change rate: −10.04%
[32]
  Body weight: 213.9 ± 12.9 g
  Body weight change rate: 0.99%
[33]
  Body weight: 329.2 ± 48.5 g
  Body weight change rate: −14.83%
[34]
  Body weight: 365.9 ± 50.0 g
  Body weight change rate: −11.77%
[35]
  Body weight: 386.7 ± 51.8 g
  Body weight change rate: −11.87%
[36]
  Body weight: 413.2 ± 56.3 g
  Body weight change rate: −10.49%
